According to BindingDB's records for doi:10.1021/jm00034a008 (Ciba-Geigy, 1994):

Legend:
[1] = target: Purine nucleoside phosphorylase (Bos taurus) (UniProt P55859); test: Inhibition of calf spleen PNP (purine nucleoside phosphorylase) in 1 mM phosphate
[2] = target: Purine nucleoside phosphorylase (Bos taurus) (UniProt P55859); test: Inhibition of calf spleen PNP (purine nucleoside phosphorylase) in 50 mM phosphate

Sequence of Purine nucleoside phosphorylase (Bos taurus) (P55859 whole entry, looked up): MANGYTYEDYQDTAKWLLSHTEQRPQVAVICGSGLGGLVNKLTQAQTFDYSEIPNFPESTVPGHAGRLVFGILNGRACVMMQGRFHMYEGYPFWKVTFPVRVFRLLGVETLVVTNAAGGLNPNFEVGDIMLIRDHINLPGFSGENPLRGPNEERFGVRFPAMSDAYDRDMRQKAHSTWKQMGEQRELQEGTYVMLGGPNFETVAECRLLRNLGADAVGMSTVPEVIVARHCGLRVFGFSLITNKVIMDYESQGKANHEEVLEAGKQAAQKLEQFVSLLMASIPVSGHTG

IC50 [1] | IC50 [2] | Structure (SMILES)
0.18 µM | 9 µM | CC(C)(CCn1cnc2c(=O)[nH]c(N)nc21)CCS(=O)(=O)O [5-(2-Amino-6-oxo-1,6-dihydro-purin-9-yl)-3,3-dimethyl-pentane-1-sulfonic acid]
260 µM | > 300 µM | CC(C)(CCC#N)CCn1cnc2c(=O)[nH]c(N)nc21 [6-(2-Amino-6-oxo-1,6-dihydro-purin-9-yl)-4,4-dimethyl-hexanenitrile]
100 µM | > 300 µM | CC(C)(CCn1cnc2c(=O)[nH]c(N)nc21)CCS(N)(=O)=O [5-(2-Amino-6-oxo-1,6-dihydro-purin-9-yl)-3,3-dimethyl-pentane-1-sulfonic acid amide]
200 µM | > 300 µM | CC(C)(CCC(N)=O)CCn1cnc2c(=O)[nH]c(N)nc21 [6-(2-Amino-6-oxo-1,6-dihydro-purin-9-yl)-4,4-dimethyl-hexanoic acid amide]
50 µM | 95 µM | CC(C)(CCS)CCn1cnc2c(=S)[nH]c(N)nc21 [2-Amino-9-(5-mercapto-3,3-dimethyl-pentyl)-1,9-dihydro-purine-6-thione]
0.044 µM | 2 µM | CC(C)(CCn1cnc2c(=O)[nH]c(N)nc21)CCP(=O)(O)O [[5-(2-Amino-6-oxo-1,6-dihydro-purin-9-yl)-3,3-dimethyl-pentyl]-phosphonic acid]
8 µM | 290 µM | CC(C)(CCC(=O)O)CCn1cnc2c(=O)[nH]c(N)nc21 [6-(2-Amino-6-oxo-1,6-dihydro-purin-9-yl)-4,4-dimethyl-hexanoic acid]
